What is called inhibition is the relative decrease from the control value, in per cent.

The target in assay [1] is T1, human recombinant adrenergic α2A receptor (Homo sapiens, UniProt P08913).
T1 construct: expressed in transfected cells; host or cells: insect Sf9 cells
T1 sequence (P08913 1-465): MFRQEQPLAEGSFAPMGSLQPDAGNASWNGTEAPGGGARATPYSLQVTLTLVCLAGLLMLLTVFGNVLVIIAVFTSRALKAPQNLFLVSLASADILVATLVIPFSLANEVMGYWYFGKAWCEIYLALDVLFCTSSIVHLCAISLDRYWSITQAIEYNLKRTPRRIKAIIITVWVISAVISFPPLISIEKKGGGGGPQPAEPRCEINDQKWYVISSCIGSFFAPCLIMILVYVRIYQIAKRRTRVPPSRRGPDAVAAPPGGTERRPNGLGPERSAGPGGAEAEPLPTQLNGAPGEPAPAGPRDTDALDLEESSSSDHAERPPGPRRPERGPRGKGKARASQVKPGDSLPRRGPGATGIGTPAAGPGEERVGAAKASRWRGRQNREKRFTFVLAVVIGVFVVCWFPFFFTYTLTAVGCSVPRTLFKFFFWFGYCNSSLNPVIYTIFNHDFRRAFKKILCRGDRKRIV
The assay can be described thus: Adrenergic α2A radioligand binding ([3H]MK-912). Conditions: 1 μM; for inhibition at 1 µM: read-out: Adrenergic α2A, inhibition of ligand binding (1 μM). As to the method: To evaluate in radioligand binding assays the activity of compounds of the invention, human recombinant adrenergic α2A receptor expressed in insect Sf9 cells (Uhlen S et al. J Pharmacol Exp Ther. 271:1558, 1994) in a modified Tris-HCl buffer (50 mM Tris-HCl, pH 7.4, 12.5 mM MgCl2, 2 mM EDTA) was used. Compounds of invention were incubated with 1 nM [^3H]MK-912 for 60 minutes at 25° C. MK912 is (2S-trans)-1,3,4,5′,6,6′,7,12b-octahydro-1′,3′-dimethyl-spiro[2H-benzofuro[2,3-a]quinolizine-2,4′(1′H) -pyrimidin]-2′(3′H)-one hydrochloride Non-specific binding was estimated in the presence of 10 μM WB-4101 (2-(2,6-Dimethoxyphenoxyethyl)aminomethyl-1,4-benzodioxane hydrochloride). Receptor proteins were filtered and washed, the filters were then counted to determine [^3H]MK-912 specifically bound. Compounds were screened at 1 μM or lower, using 1% DMSO as vehicle. Biochemical assay results are presented as the percent inhibition of specific binding in Table 3.

The target in assay [2] is T2, human recombinant serotonin (5-Hydroxytryptamine) 5-HT2C receptor (Homo sapiens, UniProt P28335).
T2 construct: expressed in transfected cells; host or cells: CHO-K1 cells
T2 sequence (P28335 33-458): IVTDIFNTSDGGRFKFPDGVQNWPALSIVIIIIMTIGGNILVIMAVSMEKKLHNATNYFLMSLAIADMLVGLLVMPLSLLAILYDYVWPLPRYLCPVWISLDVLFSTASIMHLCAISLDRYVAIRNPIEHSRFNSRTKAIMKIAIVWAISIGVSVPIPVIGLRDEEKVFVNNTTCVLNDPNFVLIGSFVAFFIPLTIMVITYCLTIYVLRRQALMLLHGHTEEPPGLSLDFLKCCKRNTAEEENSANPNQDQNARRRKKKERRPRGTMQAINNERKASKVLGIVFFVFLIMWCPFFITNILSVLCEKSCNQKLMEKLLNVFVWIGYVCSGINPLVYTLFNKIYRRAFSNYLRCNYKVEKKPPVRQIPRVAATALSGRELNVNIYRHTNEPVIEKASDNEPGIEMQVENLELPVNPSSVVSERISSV
Kind of assay: Serotonin 5-HT2C radioligand binding ([3H]Mesulergine). The conditions noted are these: for inhibition at 1 µM: read-out: Serotonin 5-HT2C, inhibition of ligand binding (1 μM). How it is done: To evaluate in radioligand binding assays the activity of compounds of the invention, human recombinant serotonin (5-Hydroxytryptamine) 5-HT2C receptor expressed in Chinese hamster ovary (CHO-K1) cells (Wolf, W. A. and Schutz, J. S., J. Neurochem. 69:1449, 1997) in a modified Tris-HCl buffer (50 mM Tris-HCl, pH 7.4, 0.1% Ascorbic Acid, 10 μM Pargyline) was used. Compounds of the invention were incubated with 1 nM [^3H]Mesulergine for 60 minutes at 25° C. Non-specific binding was estimated in the presence of 1 μM Mianserin. Receptor proteins were filtered and washed, the filters were then counted to determine [^3H]Mesulergine specifically bound. Compounds were screened at 1 μM or lower, using 1% DMSO as vehicle. Biochemical assay results are presented as the percent inhibition of specific binding in Table 4.

In assay [3] the target is T3, human recombinant serotonin (5-Hydroxytryptamine) 5-HT6 receptor (Homo sapiens, UniProt P50406).
T3 construct: expressed in transfected cells; host or cells: human HeLa cells
The assay can be described thus: Serotonin 5-HT6 radioligand binding ([3H]LSD). Conditions: for inhibition at 1 µM: read-out: Serotonin 5-HT6, inhibition of ligand binding (1 μM). How it is done: To evaluate in radioligand binding assays the activity of compounds of the invention, human recombinant serotonin (5-Hydroxytryptamine) 5-HT6 receptor expressed in human HeLa cells (Monsma, F. J. Jr. et al., Mol. Pharmacol. 43:320, 1993) in a modified Tris-HCl buffer (50 mM Tris-HCl, pH 7.4, 150 mM NaCl, 2 mM Ascorbic Acid, 0.001% BSA) was used. Compounds of the invention were incubated with 1.5 nM [3H]Lysergic acid diethylamide (LSD) for 120 minutes at 37° C. Non-specific binding was estimated in the presence of 5 μM Serotonin (5-HT). Receptor proteins were filtered and washed, the filters were then counted to determine [3H]LSD specifically bound. Compounds were screened at 1 μM or lower, using 1% DMSO as vehicle. Biochemical assay results are presented as the percent inhibition of specific binding in Table 4.

T3 sequence (P50406 whole entry): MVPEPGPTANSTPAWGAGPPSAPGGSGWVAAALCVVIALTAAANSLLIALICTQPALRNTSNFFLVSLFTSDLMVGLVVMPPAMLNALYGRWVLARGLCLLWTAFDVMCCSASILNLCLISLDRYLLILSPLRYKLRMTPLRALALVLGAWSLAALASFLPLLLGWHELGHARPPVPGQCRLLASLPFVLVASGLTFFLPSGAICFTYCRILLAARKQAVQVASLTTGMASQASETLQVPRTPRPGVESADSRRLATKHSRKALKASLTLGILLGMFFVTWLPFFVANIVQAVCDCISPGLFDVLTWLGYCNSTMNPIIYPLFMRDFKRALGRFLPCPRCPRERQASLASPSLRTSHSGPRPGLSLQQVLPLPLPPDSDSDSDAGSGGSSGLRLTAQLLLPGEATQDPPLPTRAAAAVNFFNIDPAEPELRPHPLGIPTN

For `Cc1ccc2c(c1)c1c(n2C#Cc2ccc(F)cc2)CC2CCC1N2C` (stereo not drawn) [Compound 141], the inhibition at 1 µM in assay [1] came to 61%; in assay [2], 89%; in assay [3], 21%.
`CN1C2CCC1c1c(n(CCc3ccc(Cl)cc3)c3ccc(F)cc13)C2` (stereo not drawn) [Compound 33]: the values for the inhibition at 1 µM in assay [1], in assay [2] and in assay [3] were 69%, 64% and 14%, respectively.
As to `CN1C2CCC1c1c(n(CC(=O)N3CCCC3)c3ccc(Cl)cc13)C2` (stereo not drawn) [Compound 60], the inhibition at 1 µM in assay [1] was found to be 2%; in assay [2], 15%; in assay [3] it was 9%.
`CN1C2CCC1c1c(n(CCC(N)=O)c3ccc(Cl)cc13)C2` (stereo not drawn) [Compound 73]: the inhibition at 1 µM in assay [1] is 6%; in assay [2], 5%; in assay [3], -4%.
Take `Cc1cncc(CCn2c3c(c4cc(Cl)ccc42)C2CCC(C3)N2C)c1` (stereo not drawn) [Compound 89]: the inhibition at 1 µM was 5% in assay [1], 26% in assay [2] and 10% in assay [3].
The corresponding values for `COc1ccc(CCn2c3c(c4cc(C)ccc42)C2CCC(C3)N2C)cc1` (stereo not drawn) [Compound 83] are 77%, 82% and 23%.
As to `CN1C2CCC1c1c(n(CCc3ccc(C(F)(F)F)nc3)c3cc(F)c(Cl)cc13)C2` (stereo not drawn) [Compound 77], the inhibition at 1 µM in assay [1] is 30%; in assay [2], -8%; in assay [3], 21%.
The corresponding values for `CN1C2CCC1c1c(n(CCc3cccnc3)c3ccc(Cl)cc13)C2` (stereo not drawn) [Compound 80] are 21%, 16% and 6%.
For `CN1C2CCC1c1c(n(CCC(=O)N3CCS(=O)(=O)CC3)c3ccc(Cl)cc13)C2` (stereo not drawn) [Compound 11], the inhibition at 1 µM in assay [1] was -10%; in assay [2], 13%; in assay [3], -16%.
For the compound `C/C(=C\n1c2c(c3cc(C)ccc31)C1CCC(C2)N1C)c1ccc(F)cc1` (stereo not drawn) [Compound 124], the inhibition at 1 µM in assay [1] amounted to 91%; in assay [2], 86%; in assay [3], 85%.
Taken in the same sequence, the figures for `Cc1ccc2c(c1)c1c(n2CCc2ccc(C)nc2)CC2CCC1N2C` (stereo not drawn) [Compound 32] were 17%, -3% and 13%.
As for `Cc1ccc2c(c1)c1c(n2CC(=O)N2CCCCC2)CC2CCC1N2C` (stereo not drawn) [Compound 93], the inhibition at 1 µM in assay [1] was 4%; in assay [2] it was 7%; in assay [3] it was -4%.
The corresponding values for `C/C(=C\n1c2c(c3cc(Cl)ccc31)C1CCC(C2)N1C)c1ccc(F)cc1` (stereo not drawn) [Compound 123] are 95%, 95% and 98%.
Take `Cc1ccc(CCn2c3c(c4ccccc42)[C@@H]2CC[C@H](C3)N2C)cn1` [Compound 102]: the inhibition at 1 µM in assay [1] is 4%; in assay [2], -6%; in assay [3], -5%.
`CN1C2CCC1c1c(n(CCC(=O)O)c3ccc(Cl)cc13)C2` (stereo not drawn) [Compound 72]: the inhibition at 1 µM in assay [1] is 6%; in assay [2] it was -4%; in assay [3] it was -1%.
For `Cc1ccc2c(c1)c1c(n2CCc2cnc(C)nc2)CC2CCC1N2C` (stereo not drawn) [Compound 81], the inhibition at 1 µM was -5% in assay [1], 25% in assay [2] and 12% in assay [3].
Take `Cc1ccc2c(c1)c1c(n2C(=O)Cc2ccc(Cl)cc2)CC2CCC1N2C` (stereo not drawn) [Compound 162]: the inhibition at 1 µM turned out to be 59% in assay [1], 93% in assay [2] and 23% in assay [3].
As to `CN1C2CCC1c1c(n(CC(=O)c3ccccc3)c3ccc(Cl)cc13)C2` (stereo not drawn) [Compound 110], the inhibition at 1 µM in assay [1] was 48%; in assay [2], 62%; in assay [3] it was 48%.
On to `Cc1ccc(C#Cn2c3c(c4cc(Cl)ccc42)C2CCC(C3)N2C)cn1` (stereo not drawn) [Compound 139], for which the inhibition at 1 µM in assay [1] was 93%; in assay [2] it was 93%; in assay [3], 26%.
As to `CN1C2CCC1c1c(n(CCCc3ccc(C(F)(F)F)nc3)c3ccc(Cl)cc13)C2` (stereo not drawn) [Compound 37], the inhibition at 1 µM is 10% in assay [1], 26% in assay [2] and 22% in assay [3].
For `C/C(=C\n1c2c(c3cc(Cl)ccc31)C1CCC(C2)N1C)c1ccc(Cl)cc1` (stereo not drawn) [Compound 125], the values for the inhibition at 1 µM in assay [1], in assay [2] and in assay [3] were 92%, 99% and 33%, respectively.
The corresponding values for `Cc1ccc2c(c1)c1c(n2CCc2ccc(F)cc2)CC2CCC1N2C` (stereo not drawn) [Compound 62] are 96%, 87% and 71%.
`CCOC(=O)CCn1c2c(c3cc(Cl)ccc31)C1CCC(C2)N1C` (stereo not drawn) [Compound 70, ethyl 3-(2-chloro-11-methyl-5,6,7,8,9,10-hexahydro-7,10-iminocyclohept[b]indol-5-yl)propanoate]: the inhibition at 1 µM in assay [1] stood at 3%; in assay [2], 4%; in assay [3], 3%.
Consider `Cc1ccc2c(c1)c1c(n2CCC#N)CC2CCC1N2C` (stereo not drawn) [Compound 103], for which the inhibition at 1 µM worked out at 57% in assay [1], 33% in assay [2] and 7% in assay [3].
As for `CN1C2CCC1c1c(n(CCc3ccc(C(F)(F)F)nc3)c3ccc(Cl)cc13)C2` (stereo not drawn) [Compound 34], the “Adrenergic α2A, inhibition of ligand binding (1 μM)” value in assay [1] turned out to be 39.0%. Moreover, the inhibition at 1 µM came to 42% in assay [1], 27% in assay [2] and 20% in assay [3]. For the same compound, in assay [2] (1 µM), the “Serotonin 5-HT2C, inhibition of ligand binding (1 μM)” value came to 28.0%. The “Serotonin 5-HT6, inhibition of ligand binding (1 μM)” value in assay [3] (1 µM) was 28.0%.
As to `CN1[C@H]2CC[C@@H]1c1c(n(CCc3ccc(F)cc3)c3ccc(F)cc13)C2` [Compound 95, (−)-(7R,10S)-2-Fluoro-5-(4-fluorophenethyl)-11-methyl-5,6,7,8,9,10-hexahydro-7,10-iminocyclohept[b]indole], the inhibition at 1 µM in assay [1] was 65%; in assay [2] it was 55%; in assay [3], 41%.
Taken in the same sequence, the figures for `CN1C2CCC1c1c(n(CCc3cncc(Cl)c3)c3ccc(Cl)cc13)C2` (stereo not drawn) [Compound 87] were 21%, 30% and 23%.

Values taken from patent US8546381B2, “Bridged heterocyclic compounds and methods of use” (Medivation Technologies, Inc., priority 2008, dated 2013).
